Holding throughout (assay type): cell-based
The test system of data set [1] is LINC01432. Briefly: LINC01432 expression in U266B1 cells treated with standard drugs. Particulars: FIG. 8B, 8C.
In data set [2] the test system is LINC01432. Briefly: mFISH of LINC01432 in U266B1 cells treated with high-dose melphalan. How it is done: RNAScope was performed as previously described, with some modifications using RNAscope 2.5 HD Reagent Kit Red assay combined with Immunohistochemistry (Advanced Cell Diagnostics [ACD], Catalog #323180 and #322372) according to manufacturer's instructions. Briefly, bone marrow aspirates or isolated tumors were applied to slides were baked in a dry air oven for one hour at 60° C., deparaffinized (Xylene for five minutes twice, followed by 100% ethanol for two minutes twice), hydrogen peroxide was applied for 10 minutes at room temperature, and co-detection target retrieval was performed using Steamer (BELLA) for twenty minutes and PBS-T washing. Slides were then incubated overnight with CUGBP2 (CELF2) antibody (Protein Tech, Cat #12921-1-AP) in a HybEz Slide Rack with damp humidifying paper and incubated overnight at 4° C. The next day, slides were washed in PBS-T then post-primary fixation was performed by submerging slides in 10% NBF for 30 minutes at room temperature. […]
Analysis of mFISH and IHC images was performed by comparing expression of LINC01432 or CELF2 between different cell lines or tissues and simultaneously verifying their cellular localization or intensity of expression. We first visualized our target RNA molecules using an EVOS M5000 imaging system and quantified targets with QuPath Software v0.5.1 to obtain cell-count per region and number of spots per cell data. […]

Data set [3] has as its system LINC01432 binding to CELF2. The experiment in a line: iCLIP RT-qPCR of CELF2 binding to LINC01432 in U266B1 cells treated with melphalan. Particulars: high-dose melphalan for 48 hours, FIG. 16B. On the procedure:
Cells were seeded at a density of twenty million cells/150 mm dish. The next day, cells were washed with cold PBS and media volumes were adjusted to 10 ml/dish. Dishes were then uncovered and irradiated with 150 mJ/cm^2 of […] (254 nm) in a crosslinker device (Stratalinker). Cells were then harvested and centrifuged at 2000 RPM at 4° C. for 5 minutes. Cell pellets were resuspended in 1 ml of NP-40 lysis buffer (20 mM Tris-HCl at pH 7.5, 100 mM KCl, 5 mM MgCl2, and 0.5% NP-40) with 1 μl protease inhibitor and 1 mM DTT, incubated on ice for ten minutes, and then centrifuged at 10,000 RPM for 15 minutes at 4° C. Supernatants were collected, 1 U/μl RNase T1 was added, then cell lysates were incubated at 22° C. for 30 minutes. Protein G Beads were resuspended in 100 μls NT2 buffer (50 mM Tris-HCl at pH 7.5, 150 mM NaCl,1 mM MgCl2, 0.05% NP-40) with 5 μg of respective antibodies, then rotated for one hour at room temperature. Cell lysates were added to the beads and incubated for three hours at 4° C., the beads were washed with NT2 buffer, and then incubated with 20 units RNAse-free DNase I for 15 minutes at 37° C. in a thermomixer, shaking slowly. […] (141 μls NP-40 lysis buffer, 0.1% SDS, 0.5 mg/ml Proteinase K) was then added and incubated for 15 minutes at 55° C. in a thermomixer, shaking at maximum speed. […]
(Real-time PCR tracks product formation cycle by cycle.)

For data set [4], the system named is LINC01432. Briefly: RT-qPCR of LINC01432 expression after LNA ASO transfection. Particulars: RPMI 8226 cells; 100 nM ASO, 48-72 hours; vs control LNA ASO; FIG. 5A. On the procedure: (§1) Locked nucleic acid GapmeR antisense oligonucleotides (LNA ASOs) targeting LINC01432 (Qiagen, cat #3653410) and CELF2 (Qiagen, cat #339511), and negative control LNA ASOs (Qiagen, cat #148759394), were designed using the Qiagen Antisense LNA GapmeR Custom Builder (https://www.qiagen.com), sequences are listed in Table 2. RPMI 8226 cells were seeded at a density of 500,000 cells/well in 6-well plates, transfected with respective ASOs at 100 nM concentration using Lipofectamine 2000, and incubated for 48-72 hours. Cells were harvested and target knockdown was validated via RT-qPCR.

Data set [5] deals with RPMI 8226 cells. How it is done: as §1
(§2) We used the ApoTox-Glo Triplex Assay (Promega, Madison, WI) to simultaneously measure viability, cytotoxicity, and apoptosis in the same sample. We seeded 20,000 cells/well of Control CRISPR/Cas9, LINC01432 knockdown CRISPR/Cas9, empty vector, LINC01432 overexpression, or wild-type RPMI 8226 cells in triplicate into a 96-well plate at 100 uls complete media per well. We began by first adding 20 ul of Viability/Cytoxicity reagent to all wells, and briefly mixing for ˜30 seconds. Plates were then placed in a 37° C. incubator for one hour. Next, we measured the intensity of fluorescence (relative fluorescence units) using 400Ex/505Em (viability) and 485Ex/520Em (Cytotoxicity) in Varioskan LUX microplate reader. To measure apoptosis, we next add 100 ul Caspase-Glo 3/7 reagent to the same wells and briefly mixed by orbital shaking ˜20 seconds, followed by incubation at room temp for 30 minutes. Luminescence (relative luminescence units) was then measured using Varioskan LUX microplate reader to detect caspase activation. A similar protocol was used to detect the proliferation of cells treated with Melphalan at increasing concentrations (Sigma Aldrich, St. Louis, MO, cat #M2011) using 10 uls Invitrogen alamarBlue HS Cell Viability Reagent in 90 μls of 25,000 cells with media (Waltham, MA, cat #A50100). Fluorescence was then measured using 560Ex/570Em in a microplate reader.

Data set [6] relates to RPMI 8226 cells. The experiment in a line: Proliferation (alamarBlue, IC50 assay) of cells treated with LNA ASO and Melphalan. On the procedure:
as §2

Data set [7] deals with RPMI 8226 cells. The experiment in a line: Annexin V and propidium iodide flow cytometry, LNA ASO followed by Melphalan. How it is done: We measured apoptosis by isolating cells and assessing via flow cytometry using BD Horizon V450 AnnexinV (BD Biosciences, Franklin Lakes, NJ). We seeded 500,000 cells/well in a 6-well plate for 24 hours. Cells were then harvested, and the usual protocol was followed, per manufactures instructions. Briefly, cells were washed twice with PBS, then incubated V450 AnnexinV and Propidium Iodide (ThermoFisher) for fifteen minutes at room temperature in the dark. Apoptosis and DNA content was assessed on a flow cytometer machine (Novios, Becton Dickinson) by the Flow Cytometry Core of Siteman Cancer Center, Washington University in St. Louis. We collected a minimum of 50,000 cells per sample in triplicate. FlowJo Version10 (Becton Dickinson) was used to analyze data.

Data set [8] concerns MM cell lines. The experiment in a line: Apoptosis after LNA ASO-mediated CELF2 knockdown. Particulars: MM cell lines (U266B1 in FIG. 12B); vs control LNA ASO.

“Also recorded” adds a separate entry of the source.

Turning to `N[C@@H](Cc1ccc(N(CCCl)CCCl)cc1)C(=O)O` [melphalan, Melphalan], in data set [1], the LINC01432 expression result was “increases LINC01432 expression”. Further, in data set [2] (high-dose melphalan for 24 hours, p=0.001), the “LINC01432 expression by mFISH” value is “High expression”. Also, the “LINC01432 expression by mFISH” value in data set [2] (high-dose melphalan for 48 hours, p=0.0012) is “High expression”. Also, in data set [3], the “decrease in binding enrichment compared to control cells, Tiling Primer 1” value was more than 2 Fold Change and the “decrease in binding enrichment compared to control cells, Tiling Primer 5” value is recorded as more than 2 Fold Change.

“LINC01432-targeted LNA ASO: LNA GapmeR antisense oligonucleotide targeting LINC01432, TGGAGATTTTGCCATT (SEQ_ID_NO: 31) (antisense UGGAGAUUUUGCCAUU; LNA gapmer, pattern not given here)”: the LINC01432 expression entry in data set [4] was “confirmed knockdown of LINC01432 expression”. Further, the cytotoxicity entry in data set [5] is listed as “significant decreases”. For the same compound, the viability entry in data set [5] (RPMI 8226 cells, vs control LNA ASO, p=0.001, FIG. 5B) was “significant decreases”. Moreover, the apoptosis entry in data set [5] (RPMI 8226 cells, vs control LNA ASO, p=0.017, FIG. 5B) is recorded as “significant increase”. Further, the sensitivity to melphalan result in data set [6] (MM cell lines in vitro, with high-dose melphalan) is recorded as “induce sensitivity to melphalan; also recorded: enhanced sensitivity to melphalan”. In addition, in data set [6] (RPMI 8226 cells, LNA ASO plus Melphalan, vs control LNA ASO, FIG. 5D), the proliferation entry is “decreased proliferation”. In data set [7] (MM cell lines in vitro, co-treatment with high-dose melphalan), the “apoptosis on co-treatment with melphalan” value was “increased apoptosis”. Besides, the “proportion of cells in early apoptosis and necrosis” value in data set [7] (RPMI 8226 cells, LNA ASO followed by 24 hours of 30 μM Melphalan, vs control LNA ASO, FIG. 5C) is on record as “increased”.

In the case of “CELF2 LNA ASO: LNA GapmeR antisense oligonucleotide targeting CELF2, GATGAACTCGTTACGC (SEQ_ID_NO: 33) (antisense GAUGAACUCGUUACGC; LNA gapmer from Qiagen, LNA pattern not given here)”, the apoptosis result in data set [8] was “increased apoptosis”.

The record behind these values is patent publication US20250277213A1, “COMPOSITIONS AND METHODS RELATED TO MULTIPLE MYELOMA-ASSOCIATED LONG NONCODING RNAS” (Washington University, priority 2024, published 2025).
